Reference: patent US9139615B2, “High-affinity, dimeric inhibitors of PSD-95 as efficient neuroprotectants against ischemic brain damage and for treatment of pain” (University of Copenhagen, priority 2011, dated 2015)
“Also recorded” adds a separate entry of the source. Read-outs that look alike come from different tables or passages of the source. One block for each molecule: values may come before it.

Legend:
[1] = Spinal cord detection of fluorescent PSD-95 inhibitors; format: in vivo, mice; conditions: mouse, in vivo
Method: To investigate if AB143 and AB145 are able to enter spinal cord tissue, they were administered to the mice by intraperitoneal injection (30 mg/kg). The drug-treated mice were decapitated 30 min after injection, and the spinal cord was carefully dissected out, to which 5% trichloroacetic acid (TCA) (300 μL per 0.1 g tissue) was added and the tissue homogenized with an ultrasonic homogenizer (on ice). The homogenated tissue was vortexed and centrifuged for 10 min (20000 g at 4° C.). The supernatant was transferred to a test tube and evaporated, and the residue was reconstituted in water and its fluoresence intensity was determined by using a fluorescence plate reader (excitation/emission:470/525 nm). For quantification of the compounds, a standard curve was prepared by spiking a known amount of AB143 and AB145 into spinal cord tissue from control mice prior to homogenization, followed by work-up and analysis similar to the drug-treated mice.

PDZ1-2 of PSD-95 = molecular target: T1, PDZ1-2 of PSD-95 (Homo sapiens, UniProt P78352); test: Fluorescence polarization (FP) assay, affinity for PDZ1-2 of PSD-95; format: binding; conditions: for Ki: probe AB143 0.5 nM, PDZ1-2 […], IC50 converted to Ki
T1 construct: made in house; host or cells: E. coli BL21-DE3 pLysS
T1 sequence (P78352 with tags, fused parts or gaps): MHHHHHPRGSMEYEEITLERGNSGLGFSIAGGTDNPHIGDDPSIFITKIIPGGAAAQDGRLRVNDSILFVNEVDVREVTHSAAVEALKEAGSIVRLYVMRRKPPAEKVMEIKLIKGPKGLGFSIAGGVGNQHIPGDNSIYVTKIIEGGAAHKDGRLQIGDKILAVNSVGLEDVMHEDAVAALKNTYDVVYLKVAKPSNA
Excerpt: VI.i. Fluorescence Polarization (FP) Assay: as described below, Example 1 provides a convenient and reliable way to monitor and evaluate the inhibitor properties of a PSD-95 inhibitor of the invention. The FP assay allows a wide range of peptide analogues to be tested and compared with respect to their interaction with PDZ domains, and their specificity with respect to the tandem PDZ1-2 of PSD-95. PDZ1-2 is expressed using standard recombinant DNA technology known to those skilled in the art.
More specifically, the assay is based on a heterologous competition binding assay, where the affinity measured as IC50 of a given (non-fluorescent) peptide analogue for a PDZ domain is measured in the presence of a fixed concentration of a fluorescent labeled dimeric ligand (AB143; FIG. 4). Determined IC50 values are converted to Ki values (Nikolovska-Coleska et al, Anal. Biochem. 2004, 332, p. 261-273). The 5-FAM fluorophore may be attached to the dimeric ligand by coupling with HATU or HBTU.
The cDNA coding for PSD-95 PDZ1-2 tandem (corresponding to residues 61-249 in the human full-length PSD95α without exon 4b) were amplified by inverted PCR and cloned in a modified His-tagged pRSET vector (Invitrogen, Carlsbad, Calif., USA). The encoded PDZ1-2 peptide further comprised the sequence, […] (SEQ ID NO: 14), which was used as a tag for purification (His-tag), and the DNA coding sequences and encoded proteins are designated as follows: HIS-PDZ1-2 DNA [SEQ ID NO: 1] encoding HIS-PDZ1-2 protein [SEQ ID NO: 2]. Competent E. coli bacteria (BL21-DE3, pLysS) were transformed with PDZ1-2 expressing construct and grown overnight on agar plates containing ampicillin (100 μg/mL) and chloramphenicol (35 μg/mL) at 37° C. Colonies were picked and used to inoculate bacterial cultures (LB medium with 50 μg/mL ampicillin). These were shaken while being incubated at 37° C. until A600 of the culture reached 0.45, at which point 1 mM isopropyl β-D-1-thiogalactopyranoside was added. Induced cultures were incubated over night at 30° C. (PDZ1-2). Cells were harvested by spinning at 10,000 g for 10 min at 4° C. and re-suspended in lysis buffer (50 mM Tris/HCL pH 7.5, 1 mM PMSF, 25 μg/ml DNAse, 40 mM Mg2SO4). The cells were destroyed using a cell disruptor apparatus at 26 KPsi. The cell lysate was spun down at 35,000 g for 1 hour and the supernatant filtered with a 0.45 μm and a 0.22 μm filter. Purification of expressed PDZ1-2 peptide was performed with first a nickel (II)-charged column (HisTrap™ HP, GE Healthcare, UK) equilibrated with Tris-buffer (Tris/HCl buffer 50 mM, pH 7.5) followed by gel-filtration. For gel-filtration the PDZ1-2 sample was loaded on a Superdex™ 75 HR 10/30 column (GE Healthcare, UK) equilibrated with Tris buffer (20 mM Tris/HCL, pH 7.5) with a constant flow rate at 0.5 mL/min. The relevant fractions were analyzed on a SDS-PAGE gel stained by a standard silver staining protocol. The final purification was analyzed by electrospray ionization liquid chromatography-mass spectrometry (ESI-LC/MS) to get the exact molecular weight and thereby verify the identity of the PDZ1-2 domain. Molar extinction coefficients were found by amino acids analysis (Alphalyse, Odense, Denmark) and thereafter used for measuring protein concentrations. […]
An in vitro affinity measurement assay was developed based on the fluorescence polarization principle in order to provide affinity constants (Ki values) between synthesized ligands (e.g. dimeric inhibitors) and PDZ1-2 of PSD-95. […]

[2] = tested on: CFA-induced mechanical allodynia/hyperalgesia; test: Complete Freund's adjuvant (CFA) inflammatory pain, von Frey test; format: in vivo, mice

SMILES: CC[C@H](C)[C@H](NC(=O)CCOCCOCCNCCOCCOCCC(=O)N[C@H](C(=O)N[C@@H](CCC(=O)O)C(=O)N[C@H](C(=O)N[C@@H](C)C(=O)N[C@H](C(=O)O)C(C)C)[C@@H](C)O)[C@@H](C)CC)C(=O)N[C@@H](CCC(=O)O)C(=O)N[C@H](C(=O)N[C@@H](C)C(=O)N[C@H](C(=O)O)C(C)C)[C@@H](C)O [AB141, NPEG4(IETAV)2]
ability to enter spinal cord tissue (concluded from fluorescent surrogates) [1]: able to reach their target, PSD-95, in the spinal cord

fluorescence in spinal cord tissue compared to saline-treated mice [1]: clear and distinct fluorescence increase
Kd (PDZ1-2 of PSD-95; saturation binding, probe 0.5 nM, TBS pH 7.4, read-out: Kd towards PDZ1-2 of PSD-95): 7.8 ± 0.11 nM
SMILES: CC[C@H](C)[C@H](NC(=O)CCOCCOCCN(CCOCCOCCC(=O)N[C@H](C(=O)N[C@@H](CCC(=O)O)C(=O)N[C@H](C(=O)N[C@@H](C)C(=O)N[C@H](C(=O)O)C(C)C)[C@@H](C)O)[C@@H](C)CC)C(=O)c1ccc2c(c1)C(=O)OC21c2ccc(O)cc2Oc2cc(O)ccc21)C(=O)N[C@@H](CCC(=O)O)C(=O)N[C@H](C(=O)N[C@@H](C)C(=O)N[C@H](C(=O)O)C(C)C)[C@@H](C)O [AB143, F-NPEG4(IETAV)2]

Ki (PDZ1-2 of PSD-95; heterologous competition, TBS pH 7.4, read-out: Ki ± SEM, affinity towards PDZ1-2 of PSD-95): ~9.5 nM
SMILES: CC[C@H](C)[C@H](NC(=O)CCOCCOCCOCCOCCOCCC(=O)N[C@H](C(=O)N[C@@H](CCC(=O)O)C(=O)N[C@H](C(=O)N[C@@H](C)C(=O)N[C@H](C(=O)O)C(C)C)[C@@H](C)O)[C@@H](C)CC)C(=O)N[C@@H](CCC(=O)O)C(=O)N[C@H](C(=O)N[C@@H](C)C(=O)N[C@H](C(=O)O)C(C)C)[C@@H](C)O [AB125, PEG4(IETAV)2]
CFA-induced hyperalgesia ([2]; 1, 3 and 10 mg/kg given 24 hours after CFA-injection, at 72 hours): significantly reversed
CFA-induced pain response (paw withdrawal threshold) ([2]; 3, 10 and 30 mg/kg i.p. simultaneously with CFA, 24 hours afterwards): reduces CFA-induced pain response; also recorded: differed significantly from saline-treated mice
CFA-induced hyperalgesia ([2]; 3 and 10 mg/kg given 24 hours after CFA-injection, after 1 hour): significant reversal of the CFA-induced hyperalgesia
CFA-induced hyperalgesia ([2]; 3 and 10 mg/kg given 24 hours after CFA-injection, after 24 hours): significant reversal was still observed
CFA-induced hyperalgesia ([2]; 3 and 10 mg/kg, given simultaneously with CFA, after 1 hour): significantly reversed the CFA-induced hyperalgesia
CFA-induced hyperalgesia ([2]; 3 and 10 mg/kg, given simultaneously with CFA, after 24 hours): significant reversal was still observed
duration of reversal of CFA-induced hyperalgesia ([2]; administered 24 hours after CFA treatment): at least 3 days
CFA-induced mechanical hyperalgesia ([2]; administered concurrently with CFA, 1 hour and 24 hours after treatment): prevented the development of CFA-induced mechanical hyperalgesia

SMILES: CC[C@H](C)[C@H](NC(=O)CCOCCOCCOCCOCCOCCOCCOCCC(=O)N[C@H](C(=O)N[C@@H](CCC(=O)O)C(=O)N[C@@H](CO)C(=O)N[C@@H](CC(=O)O)C(=O)N[C@H](C(=O)O)C(C)C)[C@@H](C)CC)C(=O)N[C@@H](CCC(=O)O)C(=O)N[C@@H](CO)C(=O)N[C@@H](CC(=O)O)C(=O)N[C@H](C(=O)O)C(C)C [AB122, PEG6(IESDV)2]
ability to enter spinal cord tissue (concluded from fluorescent surrogates) [1]: able to reach their target, PSD-95, in the spinal cord

SMILES: CC(C)[C@H](NC(=O)[C@H](CC(=O)O)NC(=O)[C@@H](NC(=O)[C@H](CCC(=O)O)NC(=O)[C@H](CCCCNC(=O)[C@H](CCCNC(=N)N)NC(=O)[C@H](CCCNC(=N)N)NC(=O)[C@H](CCCNC(=N)N)NC(=O)[C@H](CCC(N)=O)NC(=O)[C@H](CCCNC(=N)N)NC(=O)[C@H](CCCNC(=N)N)NC(=O)[C@H](CCCCN)NC(=O)[C@H](CCCCN)NC(=O)[C@H](CCCNC(=N)N)NC(=O)CNC(=O)[C@@H](N)Cc1ccc(O)cc1)NC(=O)CCOCCOCCOCCOCCOCCC(=O)N[C@@H](CCCCNC(=O)[C@H](CCCNC(=N)N)NC(=O)[C@H](CCCNC(=N)N)NC(=O)[C@H](CCCNC(=N)N)NC(=O)[C@H](CCC(N)=O)NC(=O)[C@H](CCCNC(=N)N)NC(=O)[C@H](CCCNC(=N)N)NC(=O)[C@H](CCCCN)NC(=O)[C@H](CCCCN)NC(=O)[C@H](CCCNC(=N)N)NC(=O)CNC(=O)[C@@H](N)Cc1ccc(O)cc1)C(=O)N[C@@H](CCC(=O)O)C(=O)N[C@H](C(=O)N[C@@H](CC(=O)O)C(=O)N[C@H](C(=O)O)C(C)C)[C@@H](C)O)[C@@H](C)O)C(=O)O [AB144_H]
Ki (PDZ1-2 of PSD-95; Ki ± SEM, affinity towards PDZ1-2 of PSD-95, heterologous competition, TBS pH 7.4): 24 ± 2 nM
fold lower affinity than AB144 (PDZ1-2 of PSD-95; PDZ1-2 of PSD-95, from Ki): ~5 fold

SMILES: CC[C@H](C)[C@H](NC(=O)CCOCCOCCOCCOCCOCCC(=O)N[C@H](C(=O)N[C@@H](CCC(=O)O)C(=O)N[C@@H](CO)C(=O)N[C@@H](CC(=O)O)C(=O)N[C@H](C(=O)O)C(C)C)[C@@H](C)CC)C(=O)N[C@@H](CCC(=O)O)C(=O)N[C@@H](CO)C(=O)N[C@@H](CC(=O)O)C(=O)N[C@H](C(=O)O)C(C)C [AB123, PEG4(IESDV)2]
ability to enter spinal cord tissue (concluded from fluorescent surrogates) [1]: able to reach their target, PSD-95, in the spinal cord
